The values that follow come from patent US8829067B2, “Polymerizable compositions with initiators containing several Ge atoms” (Ivoclar Vivadent AG, priority 2008, dated 2014).

Values joined by “and” are separate entries in the source; they are usually repeats but may differ in a detail not shown here. Equal entries are not always repeated.

Data set [1] can be described thus: UV-VIS absorption of the photoinitiators. As to conditions: for long-wave absorption maximum (λmax): UV-VIS; for extinction coefficient ε: at λmax. Format: physicochemical. The source says:
The photoinitiator di-Ge according to the invention with a long-wave absorption maximum of 400.5 nm has an extinction coefficient ε=3260 dm^2/mol which is thus more than twice that of benzoyltrimethylgermane mono-Ge (ε=1461 dm^2/mol), which leads to an improvement in photopolymerization activity. Compared with the Norrish type II photoinitiator camphorquinone widely used in the dental field, the extinction coefficient of which ε at λmax of 468 nm is only 380 dm^2/mol and which moreover requires an additional reducing agent, in most cases amine, for effective radical formation, the absorption maximum of di-Ge is clearly on a shorter wavelength and thus fades very well when irradiated.

For data set [2] the following is noted: background statement; cited from earlier work.

Turning to `CC12CCC(C(=O)C1=O)C2(C)C` (stereo not shown) [camphorquinone], in data set [1], the “long-wave absorption maximum (λmax)” value was 468 nm and the “extinction coefficient ε” value worked out at 380 dm^2/mol. In data set [2], the absorption maximum wavelength was 468 nm.
Consider `[CH3][Ge]([CH3])([CH3])[C](=O)c1ccc(OCCCCCCOc2ccc([C](=O)[Ge]([CH3])([CH3])[CH3])cc2)cc1` [di-Ge, 1,6-bis[4-(trimethylgermylcarbonyl)phenoxy]hexane], for which, in data set [1], the “long-wave absorption maximum (λmax)” value was 400.5 nm and the “extinction coefficient ε” value stood at 3260 dm^2/mol.
For the compound `[CH3][Ge]([CH3])([CH3])[C](=O)c1ccccc1` [mono-Ge, benzoyltrimethylgermanium], in data set [1], the “long-wave absorption maximum (λmax)” value came to 411.5 nm; the “extinction coefficient ε” value was 1374 dm^2/mol and 1461 dm^2/mol.
